Laboratory results taken from publication PMC7497692 (Investigational New Drugs, 2020).
Values joined by “and” are separate entries in the source; they are usually repeats but may differ in a detail not shown here. Equal entries are not always repeated. Where two headings read alike, the source gives them in different places.

Experiments:
[1] = design: method as in PMID 31822497; conditions: patients with solid tumors; cited from earlier work
[2] = cited from earlier work
[3] = Mass balance: excretion of radioactivity in urine and feces after oral [14C]-tepotinib (part A); assay type: in vivo, human healthy male volunteers
Method: (§1) Participants were hospitalized from day 1 to day 16 of the study, and further assessed on days 19, 22, and 25 (trial end). […] Pre-dose feces and urine samples were collected on day 1 and day 2, respectively. Urine was collected at 4- to 12-h intervals on day 1 and every 24 h thereafter up to day 16. Feces were collected every 24 h up to day 16. Provision was made to collect further samples up to day 39 if >1% of the administered dose was detectable in the total (urine and feces) excreta per day on two consecutive measurements.
Total radioactivity in blood, plasma, urine, and feces samples, and quick counts in urine and feces samples were determined at the bioanalytical laboratory of PRA (Assen, The Netherlands) using liquid scintillation counting (LSC). Scintillation cocktail Ultima Gold™ (5 mL; Perkin Elmar, Waltham, Massachusetts, USA) was directly spiked into 250 μL plasma and 1000 μL urine samples, respectively, whereas 300 μL aliquots of blood samples were solubilized and decolorized before adding 18 mL of the scintillation cocktail prior to LSC. Feces samples were (quantitatively) homogenized with one or two weight equivalents of water, and an accurately weighted aliquot of approximately 500 mg of the homogenate was dried at 50 °C for at least 3 h. After addition of 100 μL combustion aid, the dried samples were combusted in a sample oxidizer model 307 (Perkin Elmer, Waltham, Massachusetts, USA) using 7 mL CarboSorb® E as an absorber agent for carbon dioxide. At the end of the combustion cycle, the absorber was mixed with 13 mL of the scintillant PermaFluor® E. All scintillation counting using either low-level or normal count modes was carried out in duplicate using a Tri-Carb 3100 TR liquid scintillation analyzer (Perkin Elmer, Waltham, Massachusetts, USA), in compliance with analytical procedures validated by the PRA.
The maximum plasma concentration (Cmax) and time to reach maximum concentration (tmax) were derived directly from the plasma concentration–time data. Lag time (tlag) was the time prior to the first measurable (non-zero) concentration. The area under the plasma concentration–time curve from 0 to t (last measurable concentration; AUC0–t) was calculated using a mixed log–linear trapezoidal method. Area under the plasma concentration–time curve until the last sampling time (AUCall), which corresponds to AUC0–240 h within the observation period, was used for metabolite calculations. Amounts excreted in urine, feces, and total (urine + feces) were calculated as the sum of amounts (concentration multiplied by volume) for each collection from time 0 to time t. The terminal rate constant (λz) was used to estimate the terminal half-life (t½) (ln 2/λz), and the area under the concentration–time curve from time 0 to infinity (AUC0–∞). Total body clearance (CL) and apparent body clearance (CL/f) were determined by dose/AUC0–∞, and total volume of distribution (Vz) and apparent volume of distribution (Vz/f) were calculated by dose/(AUC0–∞*λz) after IV and oral administration, respectively. Volume of distribution of the central compartment (Vc) was derived by dividing the dose by the initial drug plasma concentration after IV administration. Absolute bioavailability was calculated as F = (AUCoral/doseoral)/(AUCIV/doseIV) × 100. The ratios (%) AUCtepotinib or metabolite/AUCtotal radioactivity were calculated as a percentage of the molar AUCs.

[4] = Unbound fraction of tepotinib in plasma, ex vivo equilibrium dialysis (part A); assay type: in vitro ADME, human healthy male volunteers; conditions: male, human, 498 mg
Method: as §1
Plasma (300 μL) was dialyzed against 100 mM sodium phosphate buffer (pH 7.4) in an orbital shaker at 37 °C for 18 h. The deuterated internal standard [^2H]-MSC2156119A and 100 mM sodium phosphate buffer (pH 7.4) were added to 5 μL of the dialyzed samples and centrifuged. Supernatant (30 μL) was diluted with acetonitrile/water (50 + 50, v/v) and centrifuged, and 5–20 μL aliquots were injected onto an XBridge C18 column (2.1 × 20 mm; 5 μm; Waters, Milford, Massachusetts, USA). Separation was carried out using a mobile phase gradient (eluent A: 5 mM ammonium bicarbonate in water; eluent B: 5 mM ammonium bicarbonate in methanol) with a flow rate of 1.2 mL/min. Mass spectrometric detection of tepotinib and its internal standard was performed as described above. The LLOQ was 0.015 ng/mL in plasma dialysates and 1.00 ng/mL in plasma. Calibration standards between 0.015 and 30.0 ng/mL (plasma dialysates), and between 1.00 ng/mL and 1000 ng/mL (plasma) were calculated by weighted (1/x^2) quadratic regression analysis, respectively.

[5] = geometric mean of n=6, % of total radioactive dose, oral part A, listed as [^14C]-tepotinib
[6] = individual subjects 1–6, % of total radioactive dose, single oral 498 mg tepotinib + 2.67 MBq [14C]-tepotinib
[7] = maximum of n=6, % of total radioactive dose, oral part A
[8] = median of n=6, % of total radioactive dose, oral part A, listed as [^14C]-tepotinib
[9] = minimum of n=6, % of total radioactive dose, oral part A
[10] = range of n=6, % of oral [14C]-tepotinib dose

CN1CCC(COc2cnc(-c3cccc(Cn4nc(-c5cccc(C#N)c5)ccc4=O)c3)nc2)CC1 [Tepotinib]
maximum tolerated dose (not reached at doses administered) [1]: > 1400 mg/day
main binding partners in plasma [2]: human serum albumin and α-acid glycoprotein
unbound fraction of tepotinib in human plasma ([2]; in vitro, concentration range 0.3–10 μM): 1.6–3.4%
time up to which radioactivity was observed in urine ([3]; after dosing, below LLOQ at 312 and 336 h in two participants): up to 360 h
time of first radioactivity detected in feces ([3]; after oral dose, part A): 24 to 48 h
time within which radioactivity was observed in urine ([3]; first collection period, part A): ≤ 4 h
Ae0–t total, Geometric mean ([3]; geometric mean of n=6, % of total radioactive dose, oral part A): 91.90%
Ae0–t feces, Geometric mean [3, 5]: 77.9% and 77.87%
Ae0–t urine, Geometric mean [3, 5]: 13.6% and 13.61%
radioactivity not recovered ([3]; geometric mean, pie chart Fig. 1, oral part A): 8.5%
Ae0–t feces [3, 6]: 79.48% and 77.92% and 69.40% and 76.89% and 82.53% and 81.76%
Ae0–t total (urine + feces) [3, 6]: 88.28% and 91.60% and 87.12% and 93.36% and 94.46% and 96.93%
Ae0–t urine [3, 6]: 8.80% and 13.68% and 17.72% and 16.47% and 11.93% and 15.17%
Ae0–t feces, Max [3, 7]: 82.53%
Ae0–t total, Max [3, 7]: 96.93%
Ae0–t urine, Max [3, 7]: 17.72%
Ae0–t feces, Median [3, 8]: 78.7%
Ae0–t total, Median [3, 8]: 92.5% and 92.48%
Ae0–t urine, Median [3, 8]: 14.4% and 14.43%
Ae0–t feces, Min [3, 9]: 69.40%
Ae0–t total, Min [3, 9]: 87.12%
Ae0–t urine, Min [3, 9]: 8.80%
time up to which excretion of radioactivity in feces was noted ([3]; post-dose, all participants, part A): up to 360 h
radioactivity excreted in feces, range [3, 10]: 69.4–82.5%
radioactivity excreted in urine, range [3, 10]: 8.8–17.7%
[14C]-tepotinib dose recovered in excreta per day ([3]; two consecutive measurements, days 15 and 16, all subjects): < 1%
fraction unbound at 18 h ([4]; pH 7.4, ex vivo, 4–24 h after oral administration, read-out: highest free fraction observed in individual participants): 0.0325
fraction unbound at 18 h ([4]; pH 7.4, ex vivo, 4–24 h after oral administration, read-out: lowest free fraction observed in individual participants): 0.0165
fraction unbound at 18 h ([4]; pH 7.4, unbound fraction of tepotinib in plasma, median values, ex vivo, range of medians at 4, 8, 12 and 24 h after oral administration): 0.018 to 0.024
